Measured values taken from ChEMBL document CHEMBL3046210, “6-Imino-2-thioxo-pyrimidinones as a new class of dipeptidyl peptidase IV inhibitors” (Med Chem Res, 2011).

What was measured:
THP-1 = assay: Cytotoxicity against Homo sapiens (human) THP1 cells up to 0.1 mM after 24 hr by MTS assay; type: cell-based; settings: thp-1, 24 h
HepG2 = assay: Cytotoxicity against Homo sapiens (human) HepG2 cells up to 0.1 mM after 24 hr by MTS assay; type: cell-based; settings: hepg2, 24 h

Compound: COc1cc(CC2(Cc3cc(OC)c(OC)c(OC)c3)C(=N)NC(=S)NC2=O)cc(OC)c1OC
- Activity (THP-1): Non-toxic
- Activity (HepG2): Non-toxic

Compound: CCCC1(Cc2cc(OC)c(OC)c(OC)c2)C(=N)NC(=S)NC1=O (stereo unspecified)
- Activity (THP-1): Non-toxic
- Activity (HepG2): Non-toxic

Compound: CCC1(Cc2cc(OC)c(OC)c(OC)c2)C(=N)NC(=S)NC1=O (stereo unspecified)
- Activity (THP-1): Non-toxic
- Activity (HepG2): Non-toxic

Compound: COc1cc(CC2(C)C(=N)NC(=S)NC2=O)cc(OC)c1OC (stereo unspecified)
- Activity (THP-1): Non-toxic
- Activity (HepG2): Non-toxic

Compound: CCCCC1(Cc2cc(OC)c(OC)c(OC)c2)C(=N)NC(=S)NC1=O (stereo unspecified)
- Activity (THP-1): Non-toxic
- Activity (HepG2): Non-toxic

Compound: COc1cc(CC2C(=N)NC(=S)NC2=O)cc(OC)c1OC (stereo unspecified)
- Activity (THP-1): Non-toxic
- Activity (HepG2): Non-toxic

Compound: COc1cc(CC2(C(C)C)C(=N)NC(=S)NC2=O)cc(OC)c1OC (stereo unspecified)
- Activity (THP-1): Non-toxic
- Activity (HepG2): Non-toxic

Compound: C=CCC1(Cc2cc(OC)c(OC)c(OC)c2)C(=N)NC(=S)NC1=O (stereo unspecified)
- Activity (THP-1): Non-toxic
- Activity (HepG2): Non-toxic
